Assay results published in ChEMBL document CHEMBL1126955, “Substituted thiopyrano[2,3,4-c,d]indoles as potent, selective, and orally active inhibitors of 5-lipoxygenase. Synthesis and biological evaluation of L-691,816” (J Med Chem, 1993).

How the values were obtained:
[1] = Bioavailability in rat (dose 20 mg/kg p.o. in 1% methocel, and 5 mg/kg i.v. in PEG400); type: ADME, organism-based; details: in vivo, po
[2] = biological target: T1, Polyunsaturated fatty acid 5-lipoxygenase (Homo sapiens, UniProt P09917); assay: In vitro inhibition of LTB4 biosynthesis in [Ca(2+)]-ionophore-activated human polymorphonuclear leukocytes; type: functional
T1 sequence (P09917 whole entry): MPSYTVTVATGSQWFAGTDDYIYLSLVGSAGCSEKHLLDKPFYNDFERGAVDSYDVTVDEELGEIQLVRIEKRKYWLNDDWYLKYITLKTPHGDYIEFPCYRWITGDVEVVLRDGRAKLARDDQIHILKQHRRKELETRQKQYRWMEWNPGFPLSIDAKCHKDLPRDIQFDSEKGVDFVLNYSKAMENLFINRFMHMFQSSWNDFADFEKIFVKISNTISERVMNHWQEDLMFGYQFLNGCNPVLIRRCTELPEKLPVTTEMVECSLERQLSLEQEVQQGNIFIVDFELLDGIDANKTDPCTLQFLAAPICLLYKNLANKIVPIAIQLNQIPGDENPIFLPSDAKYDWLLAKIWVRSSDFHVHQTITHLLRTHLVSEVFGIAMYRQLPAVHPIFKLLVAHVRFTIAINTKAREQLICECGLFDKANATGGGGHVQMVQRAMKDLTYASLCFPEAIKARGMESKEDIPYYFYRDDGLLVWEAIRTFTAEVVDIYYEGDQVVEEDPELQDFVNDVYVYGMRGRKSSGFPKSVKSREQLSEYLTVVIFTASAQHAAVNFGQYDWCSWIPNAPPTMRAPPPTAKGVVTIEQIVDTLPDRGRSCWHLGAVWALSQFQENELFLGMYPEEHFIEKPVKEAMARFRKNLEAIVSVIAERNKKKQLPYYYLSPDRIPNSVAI

Rattus norvegicus [3] = organism: Rattus norvegicus; assay: Tested for percent inhibition of dyspnea duration in hyperreactive rat model; type: functional
[4] = Peak concentration in rat plasma was determined; type: ADME, organism-based
[5] = Maximum time taken for compound to reach peak concentration in rat plasma; value ranges from 1-2 hrs; type: ADME, organism-based
[6] = biological target: T2, Polyunsaturated fatty acid 5-lipoxygenase (Rattus norvegicus, UniProt P12527); assay: In vitro test for inhibition of 5-lipoxygenase in cell-free preparations from rat PMN leukocytes
T2 sequence (P12527 whole entry): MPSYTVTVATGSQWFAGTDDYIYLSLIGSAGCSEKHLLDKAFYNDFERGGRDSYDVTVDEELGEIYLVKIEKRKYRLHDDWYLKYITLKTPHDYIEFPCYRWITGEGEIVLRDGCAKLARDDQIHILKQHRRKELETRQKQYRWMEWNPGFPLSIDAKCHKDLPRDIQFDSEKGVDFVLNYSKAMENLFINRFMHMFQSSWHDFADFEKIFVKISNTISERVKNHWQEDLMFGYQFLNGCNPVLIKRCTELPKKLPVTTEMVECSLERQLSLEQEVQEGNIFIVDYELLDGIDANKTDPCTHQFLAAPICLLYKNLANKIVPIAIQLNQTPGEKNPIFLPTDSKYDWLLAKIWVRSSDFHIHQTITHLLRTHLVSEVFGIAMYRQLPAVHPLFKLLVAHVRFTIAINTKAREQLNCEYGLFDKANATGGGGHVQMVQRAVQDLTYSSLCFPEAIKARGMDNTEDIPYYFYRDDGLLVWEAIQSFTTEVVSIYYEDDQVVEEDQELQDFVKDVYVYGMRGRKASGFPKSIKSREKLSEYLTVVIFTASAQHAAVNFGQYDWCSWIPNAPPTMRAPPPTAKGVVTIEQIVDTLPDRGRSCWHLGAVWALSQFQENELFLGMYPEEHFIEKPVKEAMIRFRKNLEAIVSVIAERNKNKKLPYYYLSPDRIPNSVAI

[7] = Rate of enzyme inactivation for the compound was determined
Homo sapiens = organism: Homo sapiens; assay: Tested for inhibition of leukotriene B4 synthesis in human PMN leukocytes at 5*10e5 cells/mL concentration; type: functional, cell-based
[8] = biological target: T3, Arachidonate 12-lipoxygenase (Sus scrofa, UniProt P16469); assay: Tested for inhibition against porcine 12-LO
T3 sequence (P16469 whole entry): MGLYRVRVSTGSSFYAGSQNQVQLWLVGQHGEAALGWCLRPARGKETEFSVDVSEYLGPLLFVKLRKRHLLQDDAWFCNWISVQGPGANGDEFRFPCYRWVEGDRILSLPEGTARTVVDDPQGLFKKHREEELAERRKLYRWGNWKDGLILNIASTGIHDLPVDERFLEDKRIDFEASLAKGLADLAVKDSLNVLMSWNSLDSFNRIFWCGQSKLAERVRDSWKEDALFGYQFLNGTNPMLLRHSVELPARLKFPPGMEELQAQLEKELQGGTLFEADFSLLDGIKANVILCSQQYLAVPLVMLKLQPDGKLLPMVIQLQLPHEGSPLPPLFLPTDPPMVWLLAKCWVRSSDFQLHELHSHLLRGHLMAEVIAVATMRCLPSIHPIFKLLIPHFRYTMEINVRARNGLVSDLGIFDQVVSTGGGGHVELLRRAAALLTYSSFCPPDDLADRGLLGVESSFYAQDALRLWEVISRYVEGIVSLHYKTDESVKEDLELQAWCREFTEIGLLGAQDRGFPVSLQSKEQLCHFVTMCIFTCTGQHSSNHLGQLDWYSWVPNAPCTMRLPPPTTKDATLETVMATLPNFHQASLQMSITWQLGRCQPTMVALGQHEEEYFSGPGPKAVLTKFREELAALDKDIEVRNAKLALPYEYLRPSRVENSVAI

Monkey [9] = assay: Changes in dynamic compliance after administration of 1 mg/kg in squirrel monkey; type: functional
Rattus norvegicus [10] = organism: Rattus norvegicus; assay: Tested for antigen-induced dyspnea in hyperreactive rat model (2 hours pretreatment); type: functional
[11] = biological target: T2, Polyunsaturated fatty acid 5-lipoxygenase; assay: Tested for inhibition of 5-HPETE production by rat 5-LO; value ranges from 16-36 nM
[12] = biological target: T1, Polyunsaturated fatty acid 5-lipoxygenase; assay: Tested for inhibition of 5-HPETE production by human 5-LO
[13] = Maximum time taken for compound to reach peak concentration in rat plasma; type: ADME, organism-based
[14] = biological target: Prostaglandin G/H synthase (cyclooxygenase) (Ovis aries) (UniProt P05979+P79208); assay: Tested for inhibition against ram seminal vesicle Prostaglandin G/H synthase at a concentration of 10 uM; type: tissue-based
Sequence of Prostaglandin G/H synthase (cyclooxygenase) (Ovis aries) (P05979 whole entry, looked up): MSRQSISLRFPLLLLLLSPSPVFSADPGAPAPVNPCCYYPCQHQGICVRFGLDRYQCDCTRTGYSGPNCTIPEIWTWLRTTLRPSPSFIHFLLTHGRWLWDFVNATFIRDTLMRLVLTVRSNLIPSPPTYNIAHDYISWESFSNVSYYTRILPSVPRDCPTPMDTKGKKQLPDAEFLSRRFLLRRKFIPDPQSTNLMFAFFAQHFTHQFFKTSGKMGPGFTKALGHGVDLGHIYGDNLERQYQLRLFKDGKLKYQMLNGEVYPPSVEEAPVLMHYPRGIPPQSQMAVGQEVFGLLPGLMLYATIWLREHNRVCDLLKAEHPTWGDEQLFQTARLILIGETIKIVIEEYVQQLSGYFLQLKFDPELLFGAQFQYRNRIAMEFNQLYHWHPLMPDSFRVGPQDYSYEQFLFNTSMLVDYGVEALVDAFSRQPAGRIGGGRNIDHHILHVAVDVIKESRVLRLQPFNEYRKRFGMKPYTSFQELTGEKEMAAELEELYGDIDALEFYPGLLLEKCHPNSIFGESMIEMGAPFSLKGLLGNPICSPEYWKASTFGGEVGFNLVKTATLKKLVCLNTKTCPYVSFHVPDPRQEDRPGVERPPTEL
Sequence of Prostaglandin G/H synthase (cyclooxygenase) (Ovis aries) (P79208 whole entry, looked up): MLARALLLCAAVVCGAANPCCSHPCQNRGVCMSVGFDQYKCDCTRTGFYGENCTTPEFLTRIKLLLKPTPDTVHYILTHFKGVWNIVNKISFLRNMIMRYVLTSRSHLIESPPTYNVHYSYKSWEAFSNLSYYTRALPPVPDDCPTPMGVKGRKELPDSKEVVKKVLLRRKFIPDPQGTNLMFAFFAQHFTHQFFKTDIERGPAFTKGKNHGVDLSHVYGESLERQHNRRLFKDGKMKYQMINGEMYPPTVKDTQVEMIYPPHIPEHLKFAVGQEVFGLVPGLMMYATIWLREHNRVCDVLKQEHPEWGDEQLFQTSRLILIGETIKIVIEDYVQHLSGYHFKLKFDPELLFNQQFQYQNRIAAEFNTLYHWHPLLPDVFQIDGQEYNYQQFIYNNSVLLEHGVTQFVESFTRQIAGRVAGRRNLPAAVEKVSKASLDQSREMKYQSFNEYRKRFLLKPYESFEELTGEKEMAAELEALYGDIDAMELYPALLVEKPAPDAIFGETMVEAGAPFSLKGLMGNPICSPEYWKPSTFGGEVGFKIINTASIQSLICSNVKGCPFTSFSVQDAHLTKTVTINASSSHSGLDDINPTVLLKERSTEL

Rattus norvegicus [15] = organism: Rattus norvegicus; assay: Tested for inhibition of leukotriene B4 in rat pleurisy model (8 hours pretreatment); type: functional
Monkey [16] = assay: Changes in airway resistance after administration of 0.3 mg/kg in squirrel monkey; type: functional
Monkey [17] = assay: Changes in dynamic compliance after administration of 0.3 mg/kg in squirrel monkey; type: functional
Monkey [18] = assay: Changes in airway resistance after administration of 1 mg/kg in squirrel monkey; type: functional
Rattus norvegicus [19] = organism: Rattus norvegicus; assay: Tested for ex-vivo inhibition of leukotriene B4 biosynthesis in rat whole blood; type: functional, organism-based
Rattus norvegicus [20] = organism: Rattus norvegicus; assay: Tested for antigen-induced dyspnea in hyperreactive rat model (2 hr pretreatment); type: functional
Monkey [21] = assay: Changes in dynamic compliance after administration of 0.3 mg/kg in squirrel monkey (not significant); type: functional

In the case of CC1Cc2c(CCc3ccc(-c4ccccc4)cn3)ccc3c2c(c(CC(C)(C)Cc2nnn[nH]2)n3Cc2ccc(Cl)cc2)S1 (stereo not drawn), the bioavailability [1] is reported as 36%, the IC50 [2] is reported as 3 nM and the Inhibition (Rattus norvegicus [3]) is reported as 37%. For the same molecule, the Cmax [4] was 8 µM, the Tmax [5] was 1 h and the IC50 [6] was 16 nM.
Molecule CC1Cc2c(OCc3ccc(-c4ccccc4)cn3)ccc3c2c(c(CC(C)(C)Cc2nnn[nH]2)n3Cc2ccc(Cl)cc2)S1 (stereo not drawn) has a kinact [7] of 0.009 s⁻¹, an IC50 (Homo sapiens) of 10 nM and an IC50 [8] of 2800 nM. The Cdyn (Monkey [9]) was -9.2%, the bioavailability [1] was 40% and the IC50 [2] was 8 nM. The ED50 (Rattus norvegicus [10]) was 0.1 mg/kg, the IC50 [11] was 16 nM and the IC50 [12] was 75 nM. For the same molecule, the Tmax [13] was 6 h, the inhibition [14] was 59% and the ED50 (Rattus norvegicus [15]) was 1.9 mg/kg. For the same molecule, the RL (Monkey [16]) was 17.5%, the Inhibition (Rattus norvegicus [3]) was 70% and the Cdyn (Monkey [17]) was -11.2%. The RL (Monkey [18]) was 12.6%, the Cmax [4] was 10 µM and the IC50 [6] was 17 nM. For the same molecule, the IC50 (Rattus norvegicus [19]) was 1500 nM.
Work on CC(C)(C)Sc1c(CC(C)(C)C(=O)O)n(Cc2ccc(Cl)cc2)c2ccc(OCc3ccc4ccccc4n3)cc12 [QUIFLAPON] yielded an ED50 (Rattus norvegicus [20]) of 0.16 mg/kg, a Cdyn (Monkey [21]) of 46% and an RL (Monkey [16]) of 44%.
